Data on four molecules can be found in publication PMC9317670, “Temporal and Wash-Out Studies Identify Medicines for Malaria Venture Pathogen Box Compounds with Fast-Acting Activity against Both Trypanosoma cruzi and Trypanosoma brucei” (Microorganisms, 2022).

Assay [1] deals with T. cruzi Tulahuen strain parasites in 3T3 host cells. The assay can be described thus: T. cruzi 48 h image-based assay. The assay is classed as cell-based, Trypanosoma cruzi. Conditions: for Emax / IC50 / Emax % (T. cruzi): 48 h; for Emax: read-out: Emax % (T. cruzi) (converted); for IC50: read-out: IC50 (T. cruzi); for SI (T. cruzi) 3T3: selectivity index in relation to 3T3 host cells, highest dose 3T3 73 µM; for SI (T. cruzi) HEK: selectivity index in relation to HEK293 cells; for SI (T. cruzi) (HEP): selectivity index in relation to HEPG2 cells.

The next assay relates to HEPG2 cells. The assay can be described thus: HEPG2 cytotoxicity assay. Format: cell-based, human. Conditions: HEPG2, 72 h, NA = not active, highest dose 79 µM unless given.
In assay [2] the test system is T. cruzi. Nature of the assay: T. cruzi temporal image-based assay, 24 h exposure. Format: cell-based, Trypanosoma cruzi. Conditions: for IC50: NA = not active at given concentration, read-out: IC50 24 h T. cruzi.
For assay [3], the system named is T. cruzi. The assay can be described thus: T. cruzi compound wash off assay (48 h with compound, wash off, 72 h without). The assay is classed as cell-based, Trypanosoma cruzi. Conditions: T. cruzi; for Fold Change of IC50, wash off vs 48 h: IC50 from 48 h incubation to IC50 following wash off and further 72 h; for IC50: read-out: IC50 Wash Off.
In a further assay the test system is T. cruzi and T.b. brucei. The assay can be described thus: Speed of action and cidality classification from temporal and wash off assays. Conditions: for Speed of Action (FA/SA): TC = T. cruzi, TBB = T.b. brucei. The assay is classed as cell-based, Trypanosoma cruzi, Trypanosoma brucei brucei.
The subject of assay [4] is T.b. brucei bloodstream 427 strain parasites. The assay can be described thus: T.b. brucei 72 h REDOX-based (resazurin) viability assay. The assay is classed as cell-based, Trypanosoma brucei brucei. The settings on record: for SI (T.b. brucei) HEK: selectivity index in relation to HEK293 cells; for SI (T.b. brucei) (HEP): selectivity index in relation to HEPG2 cells. For orientation: The colour change of resazurin is a common sign of viable cells or microbes.

A further assay deals with HEK293 cells. Nature of the assay: HEK293 cytotoxicity assay. Format: cell-based, human. The settings on record: HEK293, 72 h, NA = not active, highest dose 79 µM unless given.
Assay [5] has as its system T.b. brucei. Nature of the assay: T.b. brucei temporal viability (time-kill) assay, 24 h, PrestoBlue. The settings on record: for IC50: read-out: IC50 24 h T.b. brucei. Format: cell-based, Trypanosoma brucei brucei. As for the experimental part: Time-kill assays was undertaken as previously described, using the REDOX reagent PrestoBlue® [24]. […] Control compounds were added at the same concentrations at outlined for the resazurin-based assays.

The subject of assay [6] is T.b. brucei. The assay can be described thus: T.b. brucei temporal viability (time-kill) assay, 48 h, PrestoBlue. Format: cell-based, Trypanosoma brucei brucei. The settings on record: for IC50: read-out: IC50 48 h T.b. brucei.
Setting [7] is: Trypanosoma cruzi, 48 h incubation, wash off, further 72 h.
Setting [8] is: 48 h incubation, wash off, further 72 h.

Like-named read-outs stand apart in the source and are kept apart here.

The term IC50 denotes the concentration that gives 50% inhibition. In the case of `O=C(Cn1ccnc1[N+](=O)[O-])NCc1ccccc1` [Benznidazole, reference compound], the Emax in [1] (Trypanosoma cruzi, TULAHUEN) is 100%. For the same molecule, the IC50 is 3400 ± 710 nM in assay [1] (Trypanosoma cruzi, TULAHUEN); 4700 ± 1400 nM in the assay with T. cruzi [2] (Trypanosoma cruzi); 1200 ± 110 nM with T. cruzi [3] (setting [7]). Also, the “SI (T. cruzi) 3T3” value in assay [1] was more than 37. Moreover, the “IC50 (HEP)” value in the assay on HEPG2 cells is “NT (NA at 127 µM)”. Also, the “Fold Change of IC50, wash off vs 48 h” value in the assay on T. cruzi [3] is on record as 0.29 fold. Besides, the “Speed of Action (FA/SA)” value with T. cruzi and T.b. brucei is “FA (Fast-acting (FA) = IC50 value can be determined following 24 h incubation, <10-fold difference in the IC50 value from 24 to 72 h)”.
On to `O=C(Nc1ccc2c(c1)B(O)OC2)c1ccccc1C(F)(F)F` [MMV 652003], for which the Emax was 100% in assay [4] (Trypanosoma brucei, 72 h); 100% in assay [1] (Trypanosoma cruzi, TULAHUEN); 93% in the assay with T. cruzi [2] (Trypanosoma cruzi); 99% in the assay on T. cruzi [3] (setting [7]); 100% with T.b. brucei [5] (Trypanosoma brucei, read-out: Emax 24 h T.b. brucei (converted)); 100% in the assay with T.b. brucei [6] (Trypanosoma brucei, read-out: Emax 48 h T.b. brucei (converted)). Besides, the IC50 in assay [4] (Trypanosoma brucei, 72 h) is 92 ± 2.7 nM; in assay [1] (Trypanosoma cruzi, TULAHUEN), 150 ± 4 nM; in the assay on HEK293 cells (Homo sapiens), 6800 ± 204 nM; in the assay with T. cruzi [2] (Trypanosoma cruzi) it was 1280 ± 560 nM; with T. cruzi [3] (setting [7]), 510 ± 80 nM; with T.b. brucei [5] (Trypanosoma brucei) it was 450 ± 67 nM. In the assay with T.b. brucei [6] (Trypanosoma brucei), the IC50 was 110 ± 12 nM. Further, in [4], the “SI (T.b. brucei) HEK” value was 74. In addition, the “SI (T.b. brucei) (HEP)” value in assay [4] is recorded as more than 862. Moreover, in assay [1], the “SI (T. cruzi) 3T3” value is recorded as more than 487. Moreover, the “SI (T. cruzi) HEK” value in assay [1] is 45. For the same molecule, in assay [1], the “SI (T. cruzi) (HEP)” value is on record as more than 548. The “Fold Change of IC50, wash off vs 48 h” value in the assay on T. cruzi [3] was found to be 3.4 fold. In the assay with T. cruzi and T.b. brucei, the “Speed of Action (FA/SA)” value is “FA (Fast-acting (FA) = IC50 value can be determined following 24 h incubation, <10-fold difference in the IC50 value from 24 to 72 h)”. Moreover, the “Speed of Action (Table 5)” value in the assay with T. cruzi and T.b. brucei (prioritised compounds, Fast/Slow) is listed as “Fast”.
Turning to `Cc1cc(C2=NOC(c3cc(Cl)c(F)c(Cl)c3)(C(F)(F)F)C2)ccc1C(=O)NCc1ccc2c(c1)C(C)(C)OB2O` (stereo not shown) [MMV 687776], in assay [4] (72 h), the “Emax % (T.b. brucei)” value amounted to 99% and the IC50 amounted to 4300 ± 1300 nM. In [4], the “SI (T.b. brucei) HEK” value was 3.0 and the “SI (T.b. brucei) (HEP)” value is recorded as more than 18. Besides, in assay [1], the “Emax % (T. cruzi)” value stood at 100%, the IC50 worked out at 1600 ± 380 nM, the “SI (T. cruzi) 3T3” value is listed as more than 46 and the “SI (T. cruzi) HEK” value amounted to 8.1. The “SI (T. cruzi) (HEP)” value in assay [1] is reported as more than 50. Further, in assay [1] (listed as MMV687776), the “Emax % (T. cruzi)” value is reported as more than 95% and the “SI (T. cruzi) 3T3” value is given as more than 46. The molecule further yielded a 50% inhibitory concentration (IC50) with HEK293 cells of 13000 ± 1600 nM. In addition, in the assay with T. cruzi [3] (setting [8]), the “Emax Wash Off” value is 100% and the IC50 is 1600 ± 64 nM. Moreover, the “Fold Change of IC50, wash off vs 48 h” value in the assay with T. cruzi [3] was determined as 1.0 fold. In the assay on T.b. brucei [5], the “Emax 24 h T.b. brucei” value worked out at 89% and the IC50 is 5350 ± 103 nM. For the same molecule, in the assay with T.b. brucei [6], the “Emax 48 h T.b. brucei” value is 99% and the IC50 was 4040 ± 1780 nM. For the same molecule, in the assay on T. cruzi and T.b. brucei, the “Speed of Action (FA/SA)” value is recorded as “SA (TC)”.
`CCCCN(CCCC)c1c(C#N)cc(S(=O)(=O)Nc2ccccc2)cc1C#N` [MMV 688467]: in assay [4] (72 h), the “Emax % (T.b. brucei)” value was found to be 99% and the midpoint of inhibition, the IC50, lay at 310 ± 6.9 nM. In assay [4], the “SI (T.b. brucei) HEK” value is listed as more than 254 and the “SI (T.b. brucei) (HEP)” value is given as 74. Moreover, in [1], the “Emax % (T. cruzi)” value was 98%, the IC50 stood at 2300 ± 460 nM, the “SI (T. cruzi) 3T3” value was more than 32 and the “SI (T. cruzi) HEK” value is given as more than 34. Further, the “SI (T. cruzi) (HEP)” value in assay [1] is on record as 10. Besides, in assay [1] (listed as MMV688467), the “Emax % (T. cruzi)” value is reported as more than 95%. In the assay on HEPG2 cells (read-out: IC50 (HEP) (converted)), the IC50 is 23000 nM. Moreover, in the assay on T. cruzi [2], the “Emax 24 h T. cruzi” value is on record as 75% and the IC50 is 4400 ± 730 nM. In the assay on T. cruzi [3] (setting [8]), the “Emax Wash Off” value was 100% and the IC50 turned out to be 2100 ± 440 nM. Moreover, the “Fold Change of IC50, wash off vs 48 h” value in the assay on T. cruzi [3] is given as 0.91 fold. In addition, in the assay with T.b. brucei [5], the “Emax 24 h T.b. brucei” value worked out at 88% and the IC50 came out at 1200 ± 350 nM. Besides, in the assay with T.b. brucei [6], the “Emax 48 h T.b. brucei” value was found to be 100% and the IC50 is 460 ± 18 nM. Further, the “Speed of Action (FA/SA)” value with T. cruzi and T.b. brucei is listed as “SA (TC)”.
